Experimental findings from patent US12447136B2, “Use of (5R,7R,10R)-12,15-dioxo-α-selinene in the preparation of drugs” (KUNMING INSTITUTE OF BOTANY, CHINESE ACADEMY OF SCIENCES, priority 2020, dated 2025) are described below.

In this series the test system is MPP^+-induced PC12 cell injury. The experiment in a line: Protective effect on MPP+-induced PC12 cell injury (MTS cell viability). As to the method:
1. PC12 poorly-differentiated cells were cultured in a medium containing Dulbecco's modified Eagle's medium (DMEM) high glucose+10% fetal bovine serum (FBS)+100 U/mL penicillin-streptomycin, in an incubator at 37° C. and 5% CO2.
2. When growing to 80% to 90%, the PC12 poorly-differentiated cells were subjected to trypsin digestion to obtain a cell suspension.
3. The cell suspension was aspirated into a 15 mL centrifuge tube, followed by centrifugation at 800 rpm for 5 min.
4. After the centrifugation, the centrifuge tube was sterilized with alcohol and placed into an ultra-clean bench, and a supernatant was poured into a waste liquid tank.
5. 5 mL of a new complete medium was added, followed by blowing the medium ten times by a pipette to disperse the cells as much as possible, wherein the blowing should not be performed by too large of a force.
6. 0.02 mL of the cell suspension was taken and added to a cell counting plate for counting.
7. The cell suspension was adjusted to have a cell concentration of 1×10^5 cells/mL, then added to a 96-well plate by 0.1 mL per well, and incubated in a cell incubator.
8. After 23 h, the original medium was aspirated, and a new medium (the formula of which was the same as that in the above step 1) was added; the compound to be tested was added; and 1 h later, MPP^+ was added (a final concentration of the MPP^+ in the system was 750 μM).
9. Experimental design: each group was designed and performed for 3 repetitions:
A blank group included only medium.
A model group (MPP^+) included medium and MPP^+ which was added with a final concentration of 750 μM.
A positive control group (vitamin E) included medium, vitamin E which was added with a final concentration of 0.2 μM, and MPP^+ which was subsequently added with a final concentration of 750 μM.
10. 24 h after adding the MPP^+, MTS was added; after 2 h, values were read for detection.

On to `C=C(C=O)[C@@H]1CC[C@@]2(C)CCC=C(C=O)[C@@H]2C1` [PFC-37, (5R,7R,10R)-12,15-dioxo-α-selinene], for which, where the note is “at concentrations of 1 μM and 2 μM (P<0.001)”, the “protective activity against MPP^+-induced PC12 cell injury” value was “significant protective activity”. The “protective effect on MPP^+-induced PC12 cell injury” value (screening in the MPP^+-induced PC12 cell injury model, no concentration stated) is given as “significant protective effect”.

On to vitamin E [reference compound], for which, for the setting “0.2 μM compound or VE + 750 μM MPP^+, PC12 cells, MTS 24 h after MPP^+”, the “Cell viability (%)” value was 75.70 ± 0.64 %.
